In PubChem BioAssay AID2060611 (Molecular Pharmacology Branch, DTP, NCI, 2025):

Tested on: 628569-122-R-J1-PDC complex spheroid viability
Assay: Anticancer human tumor 628569-122-R-J1-PDC patient-derived head and neck squamous carcinoma cell line growth inhibition [CLK]
Details: for IC50: curve of first compound; for viability, T/C: stronger effect = lower value
Text: A high-throughput screen of multi-cell type tumor spheroids was designed to identify active combinations of […] and targeted small molecules. Complex spheroids include a stromal component modeled by human endothelial cells (HUVEC) and fibroblasts modeled by human mesenchymal stem cells (MSCs). The concentration ranges selected for each drug and investigational agent were based upon clinically achievable concentrations if the clinical Cmax of the agent was known.
Compounds. The drugs and investigational agents: cirtuvivint (SM08502; NSC835563), CC-671 (NSC850746), vemurafenib (NSC761431), tapotoclax (NSC804041), sotorasib (NSC818433), adagrasib (NSC831453), MRTX-1133 (NSC836407), BAY2416964 (NSC825713), copanlisib (NSC816437), inavolisib (NSC800729), abemaciclib (NSC768073), osimertinib (NSC779217), entinostat (NSC756642), eltanexor (KPT-8602, NSC794443), venetoclax (NSC766270), ceralasertib (NSC777638), bortezomib (NSC756655), olaparib (NSC753686), talazoparib (NSC767125), alisertib (NSC759677), peposertib (NSC802822), gemcitabine (NSC613327), 5-fluorouracil (NSC19893), SN-38 (NSC673596), oxaliplatin (NSC266046), paclitaxel (NSC125973), and doxorubicin (NSC123127), were obtained from the National Cancer Institute (NCI) Developmental Therapeutics Program Chemical Repository. The FDA-approved anticancer drug set is available from the Developmental Therapeutics Program at https://dtp.cancer.gov/organization/dscb/obtaining/available plates.htm. […] The stock solutions were prepared in dimethyl sulfoxide (DMSO, Sigma-Aldrich, St. Louis, MO, cat. D2650), except for the platinum complexes which were prepared in saline (Quality Biological, Gaithersburg, MD, cat. 114-055-101), at 800-fold the tested concentration and stored at -70 degrees C prior to their use. All drugs and investigational agents were tested over a range starting from a high concentration at or near the clinical Cmax and decreasing in half-log increments. If the clinical Cmax for an agent had not been determined, the highest concentration tested was 10 microM.
Cell Culture. All cells were maintained in an incubator at 37 degrees C and 5% CO2 with 95% humidity. The PDC lines were cultured according to standard operating procedures established by the NCI PDMR. Briefly, all PDCs were thawed and cultured in Matrigel-coated flasks prepared with a working solution of 1X Ham's F-12 nutrient mix, without supplementation (Invitrogen, Waltham, MA, cat. 11765054), 100 U/mL penicillin-streptomycin (Invitrogen, cat. 15140122), and 2.5% Matrigel (Corning Inc., Corning, NY, cat. 354248) for the first three passages. The 947758-054-R-J2-PDC line was cultured in 6B/Colon 1A media, which includes advanced DMEM/F-12 (Thermo Fisher Scientific, cat. 12634028), 10 mM HEPES (Thermo Fisher Scientific, cat. 15630080), 1X GlutaMAX supplement (Thermo Fisher Scientific, cat. 35050061), 0.1 mg/mL primocin (InvivoGen, cat. ant-pm-2), 10% defined fetal bovine serum, heat inactivated (HyClone Laboratories Inc., cat. SH30070.03HI), 1.25 mM N-Acetyl-L-cysteine (Sigma-Aldrich, cat. A9165), 10 mM nicotinamide (Sigma-Aldrich, cat. N0636), 1X B-27 supplement (Thermo Fisher Scientific, cat. 17504044), 1X N-2 supplement (Thermo Fisher Scientific, cat. 17502048), and 10 microM Y-27632 dihydrochloride (Tocris Bioscience, cat. 1254). The 876862-298-R-J1-PDC was cultured in 6E media, which includes all 6B/Colon 1A media components plus 50% L-WRN conditioned media (ATCC, cat. CRL-3276), 50 ng/mL recombinant human EGF recombinant protein (hEGF; Thermo Fisher Scientific, cat. PHG0311), 10 ng/mL recombinant human fibroblast growth factor 10 (hGFG-10; PeproTech, cat. 100-26), 1 ng/mL recombinant human fibroblast growth factor 2 (hFGF-2; PeproTech, cat. 100-18B), and 1 µM prostaglandin E2 (PGE2; Tocris, cat. 2296). The 227483-062-R1-J1-PDC line was cultured in Panc media, containing all 6E components except hFGF-2, with the addition of 500 nM SB-431542 (Selleckchem, cat. S1067) and 10 nM gastrin (Tocris, cat. 3006). […]

[1] = second compound 0.0316 µM, first compound 0.0316 µM
[2] = second compound 0.0316 µM, first compound 0.1 µM
[3] = second compound 0.0316 µM, first compound 0.316 µM
[4] = second compound 0.0316 µM, first compound 1 µM
[5] = second compound 0.0316 µM, first compound 3.16 µM
[6] = second compound 0.0316 µM, first compound 10 µM
[7] = second compound 0.1 µM, first compound 0.0316 µM
[8] = second compound 0.1 µM, first compound 0.1 µM
[9] = second compound 0.1 µM, first compound 0.316 µM
[10] = second compound 0.1 µM, first compound 1 µM
[11] = second compound 0.1 µM, first compound 3.16 µM
[12] = second compound 0.1 µM, first compound 10 µM
[13] = second compound 0.316 µM, first compound 0.0316 µM
[14] = second compound 0.316 µM, first compound 0.1 µM
[15] = second compound 0.316 µM, first compound 0.316 µM
[16] = second compound 0.316 µM, first compound 1 µM
[17] = second compound 0.316 µM, first compound 3.16 µM
[18] = second compound 0.316 µM, first compound 10 µM
[19] = second compound 1 µM, first compound 0.0316 µM
[20] = second compound 1 µM, first compound 0.1 µM
[21] = second compound 1 µM, first compound 0.316 µM
[22] = second compound 1 µM, first compound 1 µM
[23] = second compound 1 µM, first compound 3.16 µM
[24] = second compound 1 µM, first compound 10 µM
[25] = second compound 3.16 µM, first compound 0.0316 µM
[26] = second compound 3.16 µM, first compound 0.1 µM
[27] = second compound 3.16 µM, first compound 0.316 µM
[28] = second compound 3.16 µM, first compound 1 µM
[29] = second compound 3.16 µM, first compound 3.16 µM
[30] = second compound 3.16 µM, first compound 10 µM
[31] = second compound 10 µM, first compound 0.0316 µM
[32] = second compound 10 µM, first compound 0.1 µM
[33] = second compound 10 µM, first compound 0.316 µM
[34] = second compound 10 µM, first compound 1 µM
[35] = second compound 10 µM, first compound 3.16 µM
[36] = second compound 10 µM, first compound 10 µM
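Note: spheroids exposed to agents for seven days before readout.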
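Throughout, for viability, T/C: 100% = DMSO vehicle control viability.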

With `C=C(F)C(=O)N1CCN(c2nc(OCC3CCCN3C)nc3c2CCN(c2cccc4cccc(Cl)c24)C3)CC1CC#N` (centres undefined) + CN1CCN(c2cc(C(=O)Nc3cc4cc(-c5cnn(C)c5)ccc4cn3)ccn2)CC1 as the compound, how does the IC50 (second compound 0.0316 µM) read?
Its IC50 is 7.26 µM.

What about the IC50 (second compound 0.1 µM) of the same compound?
The IC50 was 4.56 µM.

And the IC50 (second compound 0.316 µM)?
Its IC50 is less than 0.0316 µM.

And the IC50 (second compound 1 µM)?
Its IC50 is less than 0.0316 µM.

And the IC50 (second compound 3.16 µM)?
The IC50 was less than 0.0316 µM.

And the IC50 (second compound 10 µM)?
Its IC50 is less than 0.0316 µM.

And the viability, T/C [1]?
The viability, T/C was 102%.

What about the viability, T/C [2] of the same compound?
Its viability, T/C is 80.5%.

And the viability, T/C [3]?
Its viability, T/C is 98.3%.

And the viability, T/C [4]?
Its viability, T/C is 108%.

What about the viability, T/C [5] of the same compound?
The viability, T/C was 113%.

What about the viability, T/C [6] of the same compound?
The viability, T/C was 30.6%.

And the viability, T/C [7]?
The viability, T/C was 64.3%.

What about the viability, T/C [8] of the same compound?
Its viability, T/C is 67.4%.

What about the viability, T/C [9] of the same compound?
Its viability, T/C is 64.1%.

What about the viability, T/C [10] of the same compound?
Its viability, T/C is 62.7%.

What about the viability, T/C [11] of the same compound?
Its viability, T/C is 87.9%.

What about the viability, T/C [12] of the same compound?
The viability, T/C was 8.57%.

And the viability, T/C [13]?
The viability, T/C was 35%.

And the viability, T/C [14]?
The viability, T/C was 37.6%.

What about the viability, T/C [15] of the same compound?
Its viability, T/C is 34.7%.

What about the viability, T/C [16] of the same compound?
The viability, T/C was 32.2%.

And the viability, T/C [17]?
The viability, T/C was 39.1%.

What about the viability, T/C [18] of the same compound?
The viability, T/C was 2.52%.

What about the viability, T/C [19] of the same compound?
Its viability, T/C is 7.05%.

And the viability, T/C [20]?
The viability, T/C was 4.72%.

And the viability, T/C [21]?
The viability, T/C was 5.61%.

And the viability, T/C [22]?
Its viability, T/C is 5%.

And the viability, T/C [23]?
The viability, T/C was 5.11%.

And the viability, T/C [24]?
Its viability, T/C is 1.51%.

And the viability, T/C [25]?
The viability, T/C was 6.63%.

And the viability, T/C [26]?
The viability, T/C was 4.67%.

What about the viability, T/C [27] of the same compound?
The viability, T/C was 7.01%.

And the viability, T/C [28]?
The viability, T/C was 6.75%.

What about the viability, T/C [29] of the same compound?
Its viability, T/C is 3.34%.

And the viability, T/C [30]?
The viability, T/C was 0.55%.

And the viability, T/C [31]?
The viability, T/C was 1.82%.

What about the viability, T/C [32] of the same compound?
The viability, T/C was 2.41%.

And the viability, T/C [33]?
The viability, T/C was 3.57%.

What about the viability, T/C [34] of the same compound?
The viability, T/C was 3.3%.

What about the viability, T/C [35] of the same compound?
Its viability, T/C is 0.98%.

And the viability, T/C [36]?
Its viability, T/C is 1.32%.

How did the IC50 (second compound 0.0316 µM) turn out when `C#Cc1c(F)ccc2cc(O)cc(-c3ncc4c(N5CC6CCC(C5)N6)nc(OCC56CCCN5CC(F)C6)nc4c3F)c12` (centres undefined) + CN1CCN(c2cc(C(=O)Nc3cc4cc(-c5cnn(C)c5)ccc4cn3)ccn2)CC1 was run?
Its IC50 is greater than 10 µM.

What about the IC50 (second compound 0.1 µM) of the same compound?
Its IC50 is greater than 10 µM.

And the IC50 (second compound 0.316 µM)?
The IC50 was less than 0.0316 µM.

What about the IC50 (second compound 1 µM) of the same compound?
The IC50 was less than 0.0316 µM.

And the IC50 (second compound 3.16 µM)?
The IC50 was less than 0.0316 µM.

What about the IC50 (second compound 10 µM) of the same compound?
Its IC50 is less than 0.0316 µM.

And the viability, T/C [1]?
The viability, T/C was 80.5%.

What about the viability, T/C [2] of the same compound?
Its viability, T/C is 100%.

And the viability, T/C [3]?
The viability, T/C was 88.8%.

And the viability, T/C [4]?
Its viability, T/C is 92.9%.

What about the viability, T/C [5] of the same compound?
Its viability, T/C is 84.8%.

And the viability, T/C [6]?
The viability, T/C was 96%.

What about the viability, T/C [7] of the same compound?
The viability, T/C was 56.6%.

What about the viability, T/C [8] of the same compound?
Its viability, T/C is 61.1%.

What about the viability, T/C [9] of the same compound?
The viability, T/C was 64.8%.

And the viability, T/C [10]?
The viability, T/C was 63.3%.

And the viability, T/C [11]?
The viability, T/C was 57.1%.

What about the viability, T/C [12] of the same compound?
The viability, T/C was 44.9%.

And the viability, T/C [13]?
The viability, T/C was 32.3%.

What about the viability, T/C [14] of the same compound?
The viability, T/C was 33.5%.

What about the viability, T/C [15] of the same compound?
Its viability, T/C is 34.9%.

And the viability, T/C [16]?
The viability, T/C was 42.4%.

And the viability, T/C [17]?
Its viability, T/C is 37.6%.

And the viability, T/C [18]?
The viability, T/C was 29.9%.

And the viability, T/C [19]?
Its viability, T/C is 7.93%.

What about the viability, T/C [20] of the same compound?
The viability, T/C was 5.94%.

And the viability, T/C [21]?
Its viability, T/C is 7.93%.

And the viability, T/C [22]?
Its viability, T/C is 8.03%.

And the viability, T/C [23]?
Its viability, T/C is 5.77%.

What about the viability, T/C [24] of the same compound?
The viability, T/C was 5.01%.

And the viability, T/C [25]?
Its viability, T/C is 9.44%.

What about the viability, T/C [26] of the same compound?
The viability, T/C was 7.11%.

And the viability, T/C [27]?
Its viability, T/C is 5.82%.

What about the viability, T/C [28] of the same compound?
The viability, T/C was 5.27%.

What about the viability, T/C [29] of the same compound?
The viability, T/C was 5.66%.

What about the viability, T/C [30] of the same compound?
Its viability, T/C is 7.7%.

What about the viability, T/C [31] of the same compound?
The viability, T/C was 5.72%.

And the viability, T/C [32]?
The viability, T/C was 3.17%.

And the viability, T/C [33]?
The viability, T/C was 2.28%.

And the viability, T/C [34]?
The viability, T/C was 4.25%.

And the viability, T/C [35]?
The viability, T/C was 5.23%.

What about the viability, T/C [36] of the same compound?
Its viability, T/C is 1%.
